Earlier results, collected in patent publication US7785629B2, “Bicalutamide-adsorbates, process for preparing same, and pharmaceutical compositions thereof” (Helm AG, priority 2005, dated 2010).

Settings: water and aqueous buffers at various pH values

In the case of `CC(O)(CS(=O)(=O)c1ccc(F)cc1)C(=O)Nc1ccc(C#N)c(C(F)(F)F)c1` (stereo not shown) [Bicalutamide, N-[4′-cyano-3′-trifluoromethyl-phenyl]-3-[4″-fluorophenylsulfonyl]-2-hydroxy-2-methyl-propionamide], the Solubility is given as “sparingly soluble”.
